From patent publication US20240287138A1, “CYCLIC PEPTIDES FOR INHIBITING TNF RECEPTOR 1 ACTIVITY” (Merck Sharp & Dohme LLC, priority 2023, published 2024)
Numbered stars: 1 amine (or outer) side, 2 acyl side, 3 side chain; on linkers, the order of the positions; unused ones are H or OH. Bridge positions count the residues as written; N and C are the ends. Square brackets hold non-standard residues; d marks the D form. Peptide text beside a SMILES is read from it. * marks the point of attachment. Trp(βS-Me,7-OMe) = COc1cccc2c([C@H](C)[C@H](N)C(=O)O)c[nH]c12; cBu(1-CO,cis-3-CH2NH) = O=C([C@H]1C[C@@H](CN[*:1])C1)[*:2]; Trp(4-Cl) = N[C@@H](Cc1c[nH]c2cccc(Cl)c12)C(=O)O; Trp(7-Cl) = N[C@@H](Cc1c[nH]c2c(Cl)cccc12)C(=O)O; Phe(4-CONH2) = NC(=O)c1ccc(C[C@H](N)C(=O)O)cc1; Phe(4-COOH) = N[C@@H](Cc1ccc(C(=O)O)cc1)C(=O)O; Trp(7-F) = N[C@@H](Cc1c[nH]c2c(F)cccc12)C(=O)O; Trp(7-aza) = N[C@@H](Cc1c[nH]c2ncccc12)C(=O)O; X10 = O=C([C@H](Cc1ccnc2ccccc12)N[*:1])[*:2]; Phe(4-CH2NH2) = NCc1ccc(C[C@H](N)C(=O)O)cc1; X2 = C[C@@H]1CC[C@@H](C(=O)[*:2])N([*:1])C1; Pip(5R-OH) = O=C(O)[C@@H]1CC[C@@H](O)CN1; X13 = O=C([C@H]1CC[C@@H](N[*:1])C1)[*:2]; αMeW = C[C@](N)(Cc1c[nH]c2ccccc12)C(=O)O; X1 = O=C([C@@H]1CC[C@H](N[*:1])C1)[*:2]; dPro(4,4-F2) = O=C(O)[C@H]1CC(F)(F)CN1; X6 = O=C([C@@H](N[*:1])C1(O)CC1)[*:2]; Pip(4-aza) = O=C(O)[C@@H]1CNCCN1; hPhe = N[C@@H](CCc1ccccc1)C(=O)O; 4Pal = N[C@@H](Cc1ccncc1)C(=O)O; NMeE = CN[C@@H](CCC(=O)O)C(=O)O; αMeS = C[C@](N)(CO)C(=O)O; Carboxymethyl = O=C(O)C*; NMeA = CN[C@@H](C)C(=O)O; Nle = CCCC[C@H](N)C(=O)O; Sar = CNCC(=O)O

What was measured:
[1] = target: T1, human soluble TNFR1 (sTNFR1) (Homo sapiens, UniProt P19438); assay: Human sTNFR1-peptide displacement assay (LanthaScreen Eu TR-FRET binding assay)
T1 construct: made in house; host or cells: Sf21 (baculovirus)
T1 sequence (P19438 with tags, fused parts or gaps): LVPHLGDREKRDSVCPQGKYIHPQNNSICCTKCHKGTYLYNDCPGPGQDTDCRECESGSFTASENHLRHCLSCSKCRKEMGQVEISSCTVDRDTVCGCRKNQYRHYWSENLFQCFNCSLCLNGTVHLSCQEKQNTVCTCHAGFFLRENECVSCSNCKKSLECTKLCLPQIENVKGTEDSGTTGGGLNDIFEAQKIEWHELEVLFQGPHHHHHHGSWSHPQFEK
In short: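 Readout is the 665/615 nm TR-FRET ratio (Eu anti-His donor, streptavidin-Alexa647 acceptor), normalized to DMSO and saturating displacer, fit by Morrison-based five-parameter logistic for Kd^app. His-tagged sTNFR1 (1-211) prebound to 100 nM biotinylated peptide SEQ ID NO.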

[2] = target: T2, human TNFR2 ECD protein (Homo sapiens, UniProt P20333); assay: SPR off-target binding (selectivity) to human TNFR2 ECD
T2 construct: HRV 3C protease cleavage site (C); 6His (C, cleaved yes); made in house; host or cells: Sf21 insect cells (baculovirus), secreted
T2 sequence (P20333 23-257): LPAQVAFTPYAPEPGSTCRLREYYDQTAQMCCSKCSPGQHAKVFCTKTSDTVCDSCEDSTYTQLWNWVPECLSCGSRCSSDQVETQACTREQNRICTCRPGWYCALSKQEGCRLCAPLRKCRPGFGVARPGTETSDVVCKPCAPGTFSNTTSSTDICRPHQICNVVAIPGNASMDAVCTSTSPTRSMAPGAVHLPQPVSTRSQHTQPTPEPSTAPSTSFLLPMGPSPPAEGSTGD
In short: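 SPR kinetics: peptides over captured avi-biotinylated receptor ECDs, TNFR1 for affinity, TNFR2 run in parallel for off-target binding. Running buffer HEPES pH 7.4 with 150 mM NaCl, 3 mM EDTA, 0.05% P20, 2% DMSO; surface regenerated between analytes. Affinity derived from kon/koff.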

Structure (SMILES)	Kd [1] [nM]	Kd [2] [nM]	IC50 [1] [nM]
CCCC[C@@H]1NC(=O)[C@@H]2CC[C@@H](C2)NC(=O)[C@H]([C@@H](C)c2c[nH]c3c(OC)cccc23)NC(=O)CN(C)C(=O)[C@H](Cc2ccc(O)cc2)NC(=O)[C@H](Cc2ccc(C(=O)O)cc2)NC(=O)[C@](C)(CO)NC(=O)[C@H](Cc2c[nH]c3c(Cl)cccc23)NC(=O)[C@H](Cc2ccncc2)NC(=O)[C@H](CC(N)=O)NC(=O)[C@H](CCC(=O)O)N(C)C(=O)[C@H](Cc2c[nH]c3c(Cl)cccc23)NC(=O)[C@@H]2CNCCN2C(=O)[C@H](Cc2ccncc2)NC1=O [SEQ ID NO. 262] (cyclo([4Pal][Trp(7-Cl)][αMeS][Phe(4-COOH)]Y[Sar][Trp(βS-Me,7-OMe)][X1][Nle][4Pal][Pip(4-aza)][Trp(7-Cl)][NMeE]N))	0.39	> 1000	
C[C@H]1C(=O)N[C@@H](CC(N)=O)C(=O)N[C@@H](Cc2ccncc2)C(=O)N[C@@H](Cc2c[nH]c3ccccc23)C(=O)N[C@@](C)(CO)C(=O)N[C@@H](Cc2ccc(C(=O)O)cc2)C(=O)N[C@@H](Cc2ccc(O)cc2)C(=O)N(C)CC(=O)N[C@@H](Cc2c[nH]c3ccccc23)C(=O)N[C@H](C(N)=O)CSCC(=O)N[C@@H](CCc2ccccc2)C(=O)N[C@@H](Cc2ccc(O)cc2)C(=O)N[C@@H](CO)C(=O)N[C@@H](Cc2c[nH]c3c(F)cccc23)C(=O)N1C [SEQ ID NO. 263] ({CH2CO}-[hPhe]YS[Trp(7-F)][NMeA]N[4Pal]W[αMeS][Phe(4-COOH)]Y[Sar]WC-NH2; thioether N-14)		> 1000	2.88
CCCC[C@@H]1NC(=O)[C@@H]2CC[C@@H](C2)NC(=O)[C@H]([C@@H](C)c2c[nH]c3c(OC)cccc23)NC(=O)CN(C)C(=O)[C@H](Cc2ccc(O)cc2)NC(=O)[C@H](Cc2ccc(C(=O)O)cc2)NC(=O)[C@](C)(CO)NC(=O)[C@H](Cc2c[nH]c3c(Cl)cccc23)NC(=O)[C@H](Cc2ccncc2)NC(=O)[C@H](CC(N)=O)NC(=O)[C@H]2CC(F)(F)CN2C(=O)[C@H](Cc2c[nH]c3ccccc23)NC(=O)[C@@H]2CNCCN2C(=O)[C@H](Cc2ccncc2)NC1=O [SEQ ID NO. 266] (cyclo([4Pal][Trp(7-Cl)][αMeS][Phe(4-COOH)]Y[Sar][Trp(βS-Me,7-OMe)][X1][Nle][4Pal][Pip(4-aza)]W[dPro(4,4-F2)]N))	0.45	> 1000	
CCCC[C@@H]1NC(=O)[C@H]2CC[C@H](C2)NC(=O)[C@H]([C@@H](C)c2c[nH]c3c(OC)cccc23)NC(=O)CN(C)C(=O)[C@H](Cc2ccc(O)cc2)NC(=O)[C@H](Cc2ccc(C(N)=O)cc2)NC(=O)[C@](C)(CO)NC(=O)[C@H](Cc2c[nH]c3c(Cl)cccc23)NC(=O)[C@H](Cc2ccc(C(=O)O)cc2)NC(=O)[C@H](CC(N)=O)NC(=O)[C@H](CCC(=O)O)N(C)C(=O)[C@H](Cc2c[nH]c3ccccc23)NC(=O)[C@@H]2CC[C@@H](O)CN2C(=O)[C@H](Cc2ccncc2)NC1=O [SEQ ID NO. 267] (cyclo([4Pal][Pip(5R-OH)]W[NMeE]N[Phe(4-COOH)][Trp(7-Cl)][αMeS][Phe(4-CONH2)]Y[Sar][Trp(βS-Me,7-OMe)][X13][Nle]))	0.29	> 1000	
CCCC[C@@H]1NC(=O)[C@H]2C[C@@H](CNC(=O)[C@H]([C@@H](C)c3c[nH]c4c(OC)cccc34)NC(=O)CN(C)C(=O)[C@H](Cc3ccc(O)cc3)NC(=O)[C@H](Cc3ccc(C(=O)O)cc3)NC(=O)[C@](C)(CO)NC(=O)[C@H](Cc3c[nH]c4c(Cl)cccc34)NC(=O)[C@H](Cc3ccncc3)NC(=O)[C@H](CC(N)=O)NC(=O)[C@H](CCC(=O)O)N(C)C(=O)[C@H](Cc3c[nH]c4ccccc34)NC(=O)[C@@H]3CNCCN3C(=O)[C@H](Cc3ccncc3)NC1=O)C2 [SEQ ID NO. 268] (cyclo([4Pal][Trp(7-Cl)][αMeS][Phe(4-COOH)]Y[Sar][Trp(βS-Me,7-OMe)][cBu(1-CO,cis-3-CH2NH)][Nle][4Pal][Pip(4-aza)]W[NMeE]N))	0.45	> 1000	0.77
CCCC[C@@H]1NC(=O)CSC[C@@H](C(N)=O)NC(=O)[C@H]([C@@H](C)c2c[nH]c3c(OC)cccc23)NC(=O)CN(C)C(=O)[C@H](Cc2ccc(O)cc2)NC(=O)[C@H](Cc2ccc(C(=O)O)cc2)NC(=O)[C@](C)(CO)NC(=O)[C@H](Cc2c[nH]c3c(Cl)cccc23)NC(=O)[C@H](Cc2ccncc2)NC(=O)[C@H](CC(N)=O)NC(=O)[C@H](CCC(=O)O)N(C)C(=O)[C@H](Cc2c[nH]c3ccccc23)NC(=O)[C@@H]2CC[C@@H](C)CN2C(=O)[C@H](Cc2ccncc2)NC1=O [SEQ ID NO. 272] ({CH2CO}-[Nle][4Pal][X2]W[NMeE]N[4Pal][Trp(7-Cl)][αMeS][Phe(4-COOH)]Y[Sar][Trp(βS-Me,7-OMe)]C-NH2; thioether N-14)	0.21	> 1000	0.3
C[C@@]1(CO)NC(=O)[C@H](Cc2c[nH]c3ncccc23)NC(=O)[C@H](Cc2ccncc2)NC(=O)[C@H](CC(N)=O)NC(=O)[C@H]2CCCN2C(=O)[C@H](Cc2ccnc3ccccc23)NC(=O)[C@H](CO)NC(=O)[C@H](Cc2ccncc2)NC(=O)[C@H](CCC(N)=O)NC(=O)CSC[C@@H](C(N)=O)NC(=O)[C@H](Cc2c[nH]c3cccc(Cl)c23)NC(=O)[C@@H]2CCCN2C(=O)[C@H](Cc2ccc(O)cc2)NC(=O)[C@H](Cc2ccc(C(=O)O)cc2)NC1=O [SEQ ID NO. 278] ({CH2CO}-Q[4Pal]S[X10][dP]N[4Pal][Trp(7-aza)][αMeS][Phe(4-COOH)]YP[Trp(4-Cl)]C-NH2; thioether N-14)		> 1000	8.69
CCCC[C@@H]1NC(=O)CSC[C@@H](C(N)=O)NC(=O)[C@](C)(Cc2c[nH]c3ccccc23)NC(=O)CN(C)C(=O)[C@H](Cc2ccc(O)cc2)NC(=O)[C@H](Cc2ccc(C(=O)O)cc2)NC(=O)[C@](C)(CO)NC(=O)[C@H](Cc2c[nH]c3c(Cl)cccc23)NC(=O)[C@H](Cc2ccncc2)NC(=O)[C@H](CC(N)=O)NC(=O)[C@H](CCC(=O)O)N(C)C(=O)[C@H](Cc2c[nH]c3ncccc23)NC(=O)[C@H](C2(O)CC2)NC(=O)[C@H](Cc2ccncc2)NC1=O [SEQ ID NO. 281] ({CH2CO}-[Nle][4Pal][X6][Trp(7-aza)][NMeE]N[4Pal][Trp(7-Cl)][αMeS][Phe(4-COOH)]Y[Sar][αMeW]C-NH2; thioether N-14)		> 1000	1.4
CCCC[C@@H]1NC(=O)CSC[C@@H](C(N)=O)NC(=O)[C@](C)(Cc2c[nH]c3ccccc23)NC(=O)CN(C)C(=O)[C@H](Cc2ccc(O)cc2)NC(=O)[C@H](Cc2ccc(OCC(=O)O)cc2)NC(=O)[C@](C)(CO)NC(=O)[C@H](Cc2c[nH]c3c(Cl)cccc23)NC(=O)[C@H](Cc2ccncc2)NC(=O)[C@H](CC(N)=O)NC(=O)[C@H](CCC(=O)O)N(C)C(=O)[C@H](Cc2c[nH]c3ncccc23)NC(=O)[C@H](CO)NC(=O)[C@H](Cc2ccc(CN)cc2)NC1=O [SEQ ID NO. 283] ({CH2CO}-[Nle][Phe(4-CH2NH2)]S[Trp(7-aza)][NMeE]N[4Pal][Trp(7-Cl)][αMeS]Y(Carboxymethyl)Y[Sar][αMeW]C-NH2; thioether N-14)		> 1000	1.45
CCCC[C@@H]1NC(=O)[C@@H]2CC[C@@H](C2)NC(=O)[C@H]([C@@H](C)c2c[nH]c3c(OC)cccc23)NC(=O)CN(C)C(=O)[C@H](Cc2ccc(O)cc2)NC(=O)[C@H](Cc2ccc(C(=O)O)cc2)NC(=O)[C@](C)(CO)NC(=O)[C@H](Cc2c[nH]c3c(Cl)cccc23)NC(=O)[C@H](Cc2ccc(C(=O)O)cc2)NC(=O)[C@H](CC(N)=O)NC(=O)[C@H](CCC(=O)O)N(C)C(=O)[C@H](Cc2c[nH]c3ccccc23)NC(=O)[C@@H]2CNCCN2C(=O)[C@H](Cc2ccncc2)NC1=O [SEQ ID NO. 288] (cyclo([4Pal][Pip(4-aza)]W[NMeE]N[Phe(4-COOH)][Trp(7-Cl)][αMeS][Phe(4-COOH)]Y[Sar][Trp(βS-Me,7-OMe)][X1][Nle]))	0.11	> 1000	0.2
CN1CC(=O)N[C@@H](CC(N)=O)C(=O)N[C@@H](Cc2ccc(O)cc2)C(=O)N[C@@H](Cc2c[nH]c3ccccc23)C(=O)N[C@@H](CO)C(=O)N[C@@H](Cc2ccc(O)cc2)C(=O)N[C@@H](Cc2ccc(O)cc2)C(=O)N(C)CC(=O)N[C@@H](Cc2c[nH]c3ccccc23)C(=O)N[C@H](C(=O)NCC(=O)N[C@@H](CCC(=O)O)C(=O)N[C@@H](CCC(=O)O)C(N)=O)CSCC(=O)N[C@@H](Cc2ccccc2)C(=O)N[C@@H](Cc2ccc(O)cc2)C(=O)N[C@@H](CO)C(=O)N[C@@H](Cc2c[nH]c3ccccc23)C1=O [SEQ ID NO. 289] ({CH2CO}-FYSW[Sar]NYWSYY[Sar]WCGEE-NH2; thioether N-14)		> 1000	9.87
